# Reference: patent US20250171438A1 (Agios Pharmaceuticals, Inc., priority 2022, published 2025)
# Biological target: T1, human PAH with the R408W mutation (Homo sapiens, UniProt P00439, R408W)
# T1 construct: expressed in transfected cells
# T1 sequence (P00439 1-452 R408W): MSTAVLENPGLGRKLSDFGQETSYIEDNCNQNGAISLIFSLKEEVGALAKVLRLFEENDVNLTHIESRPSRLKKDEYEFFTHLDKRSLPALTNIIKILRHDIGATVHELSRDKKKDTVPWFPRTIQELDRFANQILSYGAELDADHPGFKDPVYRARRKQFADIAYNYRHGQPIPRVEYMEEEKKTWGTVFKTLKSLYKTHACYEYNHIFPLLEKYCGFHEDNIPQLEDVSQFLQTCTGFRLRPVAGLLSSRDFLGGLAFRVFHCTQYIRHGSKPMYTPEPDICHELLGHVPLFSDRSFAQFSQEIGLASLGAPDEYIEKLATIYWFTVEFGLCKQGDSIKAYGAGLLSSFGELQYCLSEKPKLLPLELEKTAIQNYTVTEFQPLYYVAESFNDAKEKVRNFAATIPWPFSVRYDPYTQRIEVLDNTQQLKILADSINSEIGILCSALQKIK
# Assay: Cell Based Phenylalanine Flux Assay
# Settings: A375 cells expressing human R408W PAH; 24 hrs compound incubation; 13C-Tyrosine by LC-MS; average where tested multiple times; read-out: AC50
row,AC50 [µM],Compound
1,< 0.5,"O=C(c1cnn2ccccc12)N1CCc2[nH]cnc2[C@H]1c1nc2c(Cl)cccc2s1 [Example 1221, (S)-(4-(4-chlorobenzo[d]thiazol-2-yl)-6,7-dihydro-1H-imidazo[4,5-c]pyridin-5(4H)-yl)(pyrazolo[1,5-a]pyridin-3-yl)methanone]"
2,1 to 5,"O=C(c1cnn2ccccc12)N1CCc2[nH]cnc2[C@@H]1c1nc2c(Cl)cccc2s1 [Example 1222, (R)-(4-(4-chlorobenzo[d]thiazol-2-yl)-6,7-dihydro-1H-imidazo[4,5-c]pyridin-5(4H)-yl)(pyrazolo[1,5-a]pyridin-3-yl)methanone]"
3,0.5 to 1,"O=C(c1ncco1)N1CCc2[nH]cnc2[C@H]1c1nc2c(F)cccc2s1 [Example 1225, (S)-(4-(4-fluorobenzo[d]thiazol-2-yl)-6,7-dihydro-1H-imidazo[4,5-c]pyridin-5(4H)-yl)(oxazol-2-yl)methanone]"
4,> 5,"O=C(c1ncco1)N1CCc2[nH]cnc2[C@@H]1c1nc2c(F)cccc2s1 [Example 1226, (R)-(4-(4-fluorobenzo[d]thiazol-2-yl)-6,7-dihydro-1H-imidazo[4,5-c]pyridin-5(4H)-yl)(oxazol-2-yl)methanone]"
5,0.5 to 1,O=C(c1cnn2cc(Br)ccc12)N1CCc2[nH]cnc2[C@H]1c1nc2c(F)cccc2s1 [Example 1235]
6,1 to 5,"O=C(c1cnn2cc(Br)ccc12)N1CCc2[nH]cnc2[C@@H]1c1nc2c(F)cccc2s1 [Example 1236, (R)-(6-bromopyrazolo[1,5-a]pyridin-3-yl)(4-(4-fluorobenzo[d]thiazol-2-yl)-6,7-dihydro-1H-imidazo[4,5-c]pyridin-5(4H)-yl)methanone]"
7,0.5 to 1,O=C(c1cnn2cc(Cl)ccc12)N1CCc2[nH]cnc2[C@H]1c1nc2c(F)cccc2s1 [Example 1237]
8,1 to 5,"O=C(c1cnn2cc(Cl)ccc12)N1CCc2[nH]cnc2[C@@H]1c1nc2c(F)cccc2s1 [Example 1238, (R)-(6-chloropyrazolo[1,5-a]pyridin-3-yl)(4-(4-fluorobenzo[d]thiazol-2-yl)-6,7-dihydro-1H-imidazo[4,5-c]pyridin-5(4H)-yl)methanone]"
9,< 0.5,O=C(c1cnn2c(Br)cccc12)N1CCc2[nH]cnc2[C@H]1c1nc2c(F)cccc2s1 [Example 1239]
10,1 to 5,"O=C(c1cnn2c(Br)cccc12)N1CCc2[nH]cnc2[C@@H]1c1nc2c(F)cccc2s1 [Example 1240, (R)-(7-bromopyrazolo[1,5-a]pyridin-3-yl)(4-(4-fluorobenzo[d]thiazol-2-yl)-6,7-dihydro-1H-imidazo[4,5-c]pyridin-5(4H)-yl)methanone]"
11,0.5 to 1,"O=C(c1cnn2ccccc12)N1CCc2[nH]cnc2[C@H]1c1nc2c(Br)cccc2s1 [Example 1241, (S)-(4-(4-bromobenzo[d]thiazol-2-yl)-6,7-dihydro-1H-imidazo[4,5-c]pyridine-5(4H)-yl)(pyrazolo [1,5-a]pyridin-3-yl)methanone]"
12,> 5,"O=C(c1cnn2ccccc12)N1CCc2[nH]cnc2[C@@H]1c1nc2c(Br)cccc2s1 [Example 1242, (R)-(4-(4-bromobenzo[d]thiazol-2-yl)-6,7-dihydro-1H-imidazo[4,5-c]pyridine-5(4H)-yl)(pyrazolo [1,5-a]pyridin-3-yl) methanone]"
13,0.5 to 1,"N#Cc1ccn2ncc(C(=O)N3CCc4[nH]cnc4[C@H]3c3nc4c(F)cccc4s3)c2c1 [Example 1249, (S)-3-(4-(4-fluorobenzo[d]thiazol-2-yl)-4,5,6,7-tetrahydro-1H-imidazo[4,5-c]pyridine-5-carbonyl)pyrazolo[1,5-a]pyridine-5-carbonitrile]"
14,1 to 5,"N#Cc1ccn2ncc(C(=O)N3CCc4[nH]cnc4[C@@H]3c3nc4c(F)cccc4s3)c2c1 [Example 1250, (R)-3-(4-(4-fluorobenzo[d]thiazol-2-yl)-4,5,6,7-tetrahydro-1H-imidazo[4,5-c]pyridine-5-carbonyl)pyrazolo[1,5-a]pyridine-5-carbonitrile]"

# Continued, compound first:
row,Compound,AC50 [µM]
1,"O=C(c1ncc(Cl)s1)N1CCc2[nH]cnc2[C@@H]1c1nc2c(F)cccc2s1 [Example 1220, (R)-(5-chlorothiazol-2-yl)(4-(4-fluorobenzo[d]thiazol-2-yl)-6,7-dihydro-1H-imidazo[4,5-c]pyridin-5(4H)-yl)methanone]",1 to 5
2,"O=C(c1cnco1)N1CCc2[nH]cnc2[C@H]1c1nc2c(F)cccc2s1 [Example 1223, (S)-(4-(4-fluorobenzo[d]thiazol-2-yl)-6,7-dihydro-1H-imidazo[4,5-c]pyridin-5(4H)-yl)(oxazol-5-yl)methanone]",0.5 to 1
3,"O=C(c1cnco1)N1CCc2[nH]cnc2[C@@H]1c1nc2c(F)cccc2s1 [Example 1224, (R)-(4-(4-fluorobenzo[d]thiazol-2-yl)-6,7-dihydro-1H-imidazo[4,5-c]pyridin-5(4H)-yl)(oxazol-5-yl)methanone]",1 to 5
4,O=C(c1cnc(Cc2ccccc2)s1)N1CCc2[nH]cnc2[C@H]1c1nc2ccccc2s1 [Example 1227],1 to 5
5,"O=C(c1cnc(Cc2ccccc2)s1)N1CCc2[nH]cnc2[C@@H]1c1nc2ccccc2s1 [Example 1228, (R)-(4-(benzo[d]thiazol-2-yl)-6,7-dihydro-1H-imidazo[4,5-c]pyridin-5(4H)-yl)(2-benzylthiazol-5-yl)methanone]",1 to 5
6,Cn1cc(-c2ncc(C(=O)N3CCc4[nH]cnc4[C@H]3c3nc4ccccc4s3)s2)cn1 [Example 1229],< 0.5
7,"Cn1cc(-c2ncc(C(=O)N3CCc4[nH]cnc4[C@@H]3c3nc4ccccc4s3)s2)cn1 [Example 1230, (R)-(4-(benzo[d]thiazol-2-yl)-6,7-dihydro-1H-imidazo[4,5-c]pyridin-5(4H)-yl)(2-(1-methyl-1H-pyrazol-4-yl)thiazol-5-yl)methanone]",1 to 5
8,C=Cc1ccc2c(C(=O)N3CCc4[nH]cnc4[C@H]3c3nc4ccccc4s3)cnn2c1 [Example 1231],0.5 to 1
9,"C=Cc1ccc2c(C(=O)N3CCc4[nH]cnc4[C@@H]3c3nc4ccccc4s3)cnn2c1 [Example 1232, (R)-(4-(benzo[d]thiazol-2-yl)-6,7-dihydro-1H-imidazo[4,5-c]pyridin-5(4H)-yl)(6-vinylpyrazolo[1,5-a]pyridin-3-yl)methanone]",1 to 5
10,"O=C(c1cncs1)N1CCc2[nH]cnc2[C@H]1c1nc2cccc(F)c2s1 [Example 1233, (S)-(4-(7-fluorobenzo[d]thiazol-2-yl)-6,7-dihydro-1H-imidazo[4,5-c]pyridin-5(4H)-yl)(thiazol-5-yl)methanone]",0.5 to 1
11,"O=C(c1cncs1)N1CCc2[nH]cnc2[C@@H]1c1nc2cccc(F)c2s1 [Example 1234, (R)-(4-(7-fluorobenzo[d]thiazol-2-yl)-6,7-dihydro-1H-imidazo[4,5-c]pyridin-5(4H)-yl)(thiazol-5-yl)methanone]",1 to 5
12,CCc1ccc2c(C(=O)N3CCc4[nH]cnc4[C@H]3c3nc4ccccc4s3)cnn2c1 [Example 1243],1 to 5
13,"CCc1ccc2c(C(=O)N3CCc4[nH]cnc4[C@@H]3c3nc4ccccc4s3)cnn2c1 [Example 1244, (R)-(4-(benzo[d]thiazol-2-yl)-6,7-dihydro-1H-imidazo[4,5-c]pyridin-5(4H)-yl)(6-ethylpyrazolo[1,5-a]pyridin-3-yl)methanone]",> 5
14,O=C(CC1CC(F)C1)N1CCc2[nH]cnc2[C@H]1c1nc2ccccc2s1 (stereo partly drawn) [Example 1245],< 0.5
15,"O=C(CC1CC(F)C1)N1CCc2[nH]cnc2[C@@H]1c1nc2ccccc2s1 (stereo partly drawn) [Example 1246, (R)-1-(4-(benzo[d]thiazol-2-yl)-6,7-dihydro-1H-imidazo[4,5-c]pyridin-5(4H)-yl)-2-(3-fluorocyclobutyl)ethanone]",1 to 5
16,"O=C(c1cnco1)N1CCc2[nH]cnc2[C@H]1c1nc2cccc(F)c2s1 [Example 1247, (S)-(4-(7-fluorobenzo[d]thiazol-2-yl)-6,7-dihydro-1H-imidazo[4,5-c]pyridin-5(4H)-yl)(oxazol-5-yl)methanone]",1 to 5
17,"O=C(c1cnco1)N1CCc2[nH]cnc2[C@@H]1c1nc2cccc(F)c2s1 [Example 1248, (R)-(4-(7-fluorobenzo[d]thiazol-2-yl)-6,7-dihydro-1H-imidazo[4,5-c]pyridin-5(4H)-yl)(oxazol-5-yl)methanone]",1 to 5
18,"Cc1nnc(C(=O)N2CCc3[nH]cnc3[C@@H]2c2nc3c(F)cccc3s2)s1 [Example 1251, (R)-(4-(4-fluorobenzo[d]thiazol-2-yl)-6,7-dihydro-1H-imidazo[4,5-c]pyridin-5(4H)-yl)(5-methyl-1,3,4-thiadiazol-2-yl)methanone]",> 5
19,"Cc1nnc(C(=O)N2CCc3[nH]cnc3[C@H]2c2nc3c(F)cccc3s2)s1 [Example 1252, (S)-(4-(4-fluorobenzo[d]thiazol-2-yl)-6,7-dihydro-1H-imidazo[4,5-c]pyridin-5(4H)-yl)(5-methyl-1,3,4-thiadiazol-2-yl)methanone]",1 to 5
20,O=C(N1CCc2[nH]cnc2[C@H]1c1nc2ccccc2s1)C(F)(F)C1CC1 [Example 1253],0.5 to 1
21,"O=C(N1CCc2[nH]cnc2[C@@H]1c1nc2ccccc2s1)C(F)(F)C1CC1 [Example 1254, (R)-1-(4-(benzo[d]thiazol-2-yl)-6,7-dihydro-1H-imidazo[4,5-c]pyridin-5(4H)-yl)-2-cyclopropyl-2,2-difluoroethanone]",> 5
22,O=C(N1CCc2[nH]cnc2[C@H]1c1nc2ccccc2s1)C1(CF)CC1 [Example 1255],0.5 to 1
